From patent publication US20220218826A1, “COMPOSITION FOR TOPICAL USE FOR PHOTODYNAMIC THERAPY” (UNIVERSIDAD DE LA FRONTERA, priority 2019, published 2022)

Legend:
[1] = system: MAL-PDT-resistant HSC-1 cells; experiment: MTT cell viability after MAL-PDT with EGCG and/or EDTA as adjuvants
Experimental: The in vitro effect of EGCG and EDTA separately as adjuvants of MAL-PDT was assessed HSC-1 cells derived from squamous skin carcinoma were used. Previously, these cells received PDT cycles, in order to select those that are resistant to PDT. Therefore, the model used corresponds to MAL-PDT-resistant HSC-1 cells.
The in vitro photodynamic conventional treatment consisted of incubating these cells with MAL 150 mg/g (photosensitiser) for 4 hours in the dark and after radiating them with 630 nm red light, with fluence of 4 J/cm^2. Cell viability was assessed 24 hours later by the MTT assay.
Subsequently, this protocol was carried out in the same way in these cells, only with the following modification: when adding MAL, different concentrations of EDTA were added (0.5 mg/g, 1 mg/g, 1.5 mg/g, and 2 mg/g) or EGCG (0.2 mg/g, 0.4 mg/g, 0.6 mg/g, 0.8 mg/g). The MAL concentration of 150 mg/g was kept in all tests and experiments with irradiation (light) fluency same to the control at 4 J/cm^2, or without radiation, were carried out.

[2] = system: PDT-resistant HSC-1 cells; experiment: Detection of protoporphyrin IX (PpIX) by flow cytometry; assay type: cell-based; details: 4 hours in the dark
Experimental: For this, PDT-resistant cells, obtained as stated in example 1, were incubated with 150 mg/g MAL, plus EGCG (0.1 mg/g, 0.2 mg/g, 0.4 mg/g) or EDTA (1 mg/g, 2 mg/g, 3 mg/g) for 4 hours in the dark. Subsequently, the PpIX content in resistant cells was detected by flow cytometry, since PpIX is a fluorescent compound.

[3] = system: PDT-resistant HSC-1 cells; experiment: Detection of reactive oxygen species (ROS) with Muse Oxidative Stress Kit; assay type: cell-based; details: all assessed EGCG concentrations (0.1, 0.2, 0.4 mg/g) + MAL 150 mg/g, 4 hours, red light irradiation
Experimental: Given that in PDT, it is finally the reactive oxygen substances that cause cell damage and death, the production of these compounds was directly assessed. The same model as in example 3 was used, at the same EGCG concentrations stated in FIG. 3A, in order to assess the production of ROS generated in MAL-PDT. Following the previous methodology, after incubating the cells for 4 hours, these received red light irradiation. For ROS detection, these were incubated with a probe (Muse™ Oxidative Stress Kit|MCH100111—Merck Millipore) for 30 minutes and was assessed in a cell analyzer.

In the case of O=C(O[C@@H]1Cc2c(O)cc(O)cc2O[C@@H]1c1cc(O)c(O)c(O)c1)c1cc(O)c(O)c(O)c1 [EGCG, epigallocatechin galate], the survival rate ([1]; EGCG from 0.4 mg/g + MAL 150 mg/g, light 4 J/cm^2) is reported as 0, the “population that contained PpIX” value ([2]; MAL 150 mg/g plus EGCG (0.1, 0.2, 0.4 mg/g)) is reported as ≤ 18% and the “ROS concentration relative to the control” value [3] is reported as “doubled or even tripled”.

For O=C(O)CN(CCN(CC(=O)O)CC(=O)O)CC(=O)O [EDTA, ethylenediaminetetraacetic acid], the “effect of EDTA in MAL-PDT on viability” value ([1]; EDTA, only at 2 mg/g, + MAL 150 mg/g, light 4 J/cm^2) was “significant” and the “population that contained PpIX” value ([2]; MAL 150 mg/g plus EDTA (1, 2, 3 mg/g)) was ≤ 13%.

For COC(=O)CCC(=O)CN [MAL, methyl aminolevulinate], the “HSC-1 resistant cells survived PDT” value ([1]; control MAL-PDT: MAL 150 mg/g, 4 hours in the dark, 630 nm red light, 4 J/cm^2, MTT 24 hours later) was ~50% and the “population that contained PpIX” value ([2]; MAL 150 mg/g alone) was 5%.
